Measured values as given in patent US20040224981A1, “Antibacterial methods and compositions” (priority 2003, published 2004).
Like-named read-outs stand apart in the source and are kept apart here.

How the values were obtained:
E. faecalis = test: MIC against E. faecalis; format: cell-based; conditions: for MIC: Enterococcus faecalis, read-out: MIC; for Range (MIC): in µg/mL
S. pyogenes = test: MIC against S. pyogenes; format: cell-based, Streptococcus pyogenes; conditions: for MIC50 / MIC90 / Mode (MIC) / MIC Range: 48 recent clinical isolates of S. pyogenes; for MIC Range: in µg/mL
Experimental: (§1) The MRS inhibitor 4 alone and in combination with mupirocin (mupirocin salt and 1:1 combination) were tested against a collection of Gram-positive pathogens.
S. pyogenes is also a significant skin pathogen and 48 recent clinical isolates were tested for their susceptibility to MRSi compound 5 alone (acetate) and in combination (1:1) with mupirocin (mupirocinate).

S. epidermidis = test: MIC against S. epidermidis; format: cell-based
Experimental: as §1
(§2) The MRS inhibitor 8 was also prepared as a fusidate and mupirocinate salt and tested for antibacterial activity against Gram-positive bacteria (Table 3). […] MRSi compound 8 alone and the fusidate and mupirocin salts were active against mupirocin-resistant S. aureus and S. epidermidis and organisms such as E. faecalis that are not susceptible to mupirocin.
(§3) The MRS inhibitor 5 acetate and mupirocin salts were tested against a collection of Gram-positive bacteria.

E. faecium = test: MIC against E. faecium; format: cell-based
Experimental: MRSi compound 5 alone and in combination with mupirocin was tested recent clinical isolates of E. faecalis (n=28) and E. faecium (n=23). Both the acetate salt and mupirocinate salts of MRSi compound 5 maintained potent activity against vancomycin-susceptible and—resistant enterococci (Tables 8, 9, and 10).

[1] = tested on: MRS-resistant mutants of S. aureus; test: Susceptibility (MIC) of MRS-resistant mutants of S. aureus; format: cell-based; conditions: Staphylococcus aureus
Experimental: MRS-resistant mutants generated in vitro in either serial passage or spontaneous resistance development studies were evaluated for susceptibility to mupirocin alone and in a 1:1 combination with MRSi compound 5.

S. hemolyticus = test: MIC against S. hemolyticus; format: cell-based
Experimental: as §1, §2, §3

[2] = ATCC29212, Table 4, E. faecalis ATCC 29212
[3] = recent clinical isolates of E. faecalis, ALL (28)
[4] = recent clinical isolates of E. faecium, ALL (23)
[5] = ATCC29213, S. aureus ATCC 29213, metS wild-type
[6] = S. aureus SP-9B5, metS I57N, V296F

## C/C(=C\C(=O)OCCCCCCCCC(=O)O)C[C@@H]1OC[C@H](C[C@@H]2O[C@H]2[C@@H](C)[C@H](C)O)[C@@H](O)[C@H]1O [Mupirocin, Pseudomonic acid A]
E. faecalis; E. faecalis, Van-R(11)
  MIC50: > 8 mg/L
  MIC90: > 8 mg/L
  Mode (MIC): > 8 mg/L
E. faecalis; E. faecalis, Van-S (16)
  MIC50: > 8 mg/L
  MIC90: > 8 mg/L
  Mode (MIC): > 8 mg/L
E. faecalis; ATCC29212, Table 2, E. faecalis ATCC 29212
  MIC: 8 mg/L
E. faecalis; ATCC29212, Table 3, E. faecalis ATCC 29212
  MIC: 8 mg/L
E. faecalis; [2]
  MIC: > 8 mg/L
E. faecalis; ATCC 51299 / VRE, Table 8, E. faecalis ATCC 51299 (VRE)
  MIC: 32 mg/L
E. faecalis; Table 2, E. faecalis 1
  MIC: 8 mg/L
E. faecalis; Table 2, E. faecalis 7
  MIC: 8 mg/L
E. faecalis; Table 3, E. faecalis 1
  MIC: 8 mg/L
E. faecalis; Table 3, E. faecalis 7
  MIC: 8 mg/L
E. faecalis; Table 4, E. faecalis 1
  MIC: > 8 mg/L
E. faecalis; Table 4, E. faecalis 7
  MIC: > 8 mg/L
E. faecalis; Table 8, E. faecalis 1
  MIC: 32 mg/L
E. faecalis; Table 8, E. faecalis 7
  MIC: 64 mg/L
E. faecalis; [3]
  MIC50: > 8 mg/L
  MIC90: > 8 mg/L
  Mode (MIC): > 8 mg/L
S. pyogenes
  MIC50: 0.12 mg/L
  MIC90: 0.25 mg/L
  Mode (MIC): 0.12 mg/L
  MIC Range: 0.03-0.5
S. pyogenes; Streptococcus pyogenes, ATCC19615, Table 2, S. pyogenes ATCC 19615, read-out: MIC
  MIC: 0.12 mg/L
S. pyogenes; Streptococcus pyogenes, Table 2, S. pyogenes MB143 (macrolide rest.), read-out: MIC
  MIC: 0.12 mg/L
S. pyogenes; Table 3, S. pyogenes ATCC 19615
  MIC: 0.12 mg/L
S. pyogenes; Table 3, S. pyogenes MB143 (macrolide rest.)
  MIC: 0.12 mg/L
S. pyogenes; Table 4, S. pyogenes ATCC 19615
  MIC: 0.12 mg/L
S. pyogenes; Table 4, S. pyogenes MB000143
  MIC: 0.12 mg/L
S. epidermidis; Staphylococcus epidermidis, Table 2, S. epidermidis NRS6, read-out: MIC
  MIC: > 8 mg/L
S. epidermidis; Staphylococcus epidermidis, Table 2, S. epidermidis NRS7, read-out: MIC
  MIC: 8 mg/L
S. epidermidis; Staphylococcus epidermidis, Table 2, S. epidermidis NRS8, read-out: MIC
  MIC: > 8 mg/L
S. epidermidis; Table 3, S. epidermidis NRS6
  MIC: >8 mg/L
S. epidermidis; Table 3, S. epidermidis NRS7
  MIC: 8 mg/L
S. epidermidis; Table 3, S. epidermidis NRS8
  MIC: >8 mg/L
S. epidermidis; Table 4, S. epidermidis NRS6
  MIC: >8 mg/L
S. epidermidis; Table 4, S. epidermidis NRS7
  MIC: 8 mg/L
S. epidermidis; Table 4, S. epidermidis NRS8
  MIC: >8 mg/L
E. faecium; E. faecium, Van-R(12)
  MIC50: 1 mg/L
  MIC90: > 8 mg/L
  Mode (MIC): 1 mg/L
E. faecium; E. faecium, Van-S (11)
  MIC50: 1 mg/L
  MIC90: 1 mg/L
  Mode (MIC): 1 mg/L
E. faecium; E. faecium, Van-S (11), in µg/mL
  Range (MIC): 0.25-1
E. faecium; Enterococcus faecium, ATCC33667, Table 8, E. faecium ATCC 33667, read-out: MIC
  MIC: 1 mg/L
E. faecium; [4]
  MIC50: 1 mg/L
  MIC90: > 8 mg/L
  Mode (MIC): 1 mg/L
[1]; [5]
  MIC: 0.12 mg/L
[1]; [6]
  MIC: 0.5 mg/L
[1]; S. aureus SP-21A, metS A77V
  MIC: 1 mg/L
[1]; read-out: MICs ranging, all the MRS-resistant mutants
  MIC: 0.12 to 1 mg/L
S. hemolyticus; Table 2, S. hemolyticus NRS50, read-out: MIC
  MIC: 0.12 mg/L
S. hemolyticus; Table 2, S. hemolyticus NRS116, read-out: MIC
  MIC: 0.25 mg/L
S. hemolyticus; Table 3, S. hemolyticus NRS50
  MIC: 0.12 mg/L
S. hemolyticus; Table 3, S. hemolyticus NRS116
  MIC: 0.25 mg/L
S. hemolyticus; Table 4, S. hemolyticus NRS50
  MIC: 0.12 mg/L
S. hemolyticus; Table 4, S. hemolyticus NRS116
  MIC: 0.25 mg/L

## C=C(F)c1sc(CNCCCNc2cc(=O)c3ccccc3[nH]2)c(C)c1Br [MRSi Cmpd 5 acetate, N-(4-bromo-5-(1-fluorovinyl)-3-methylthiophen-2-ylmethyl)-N′-(1H-quinolin-4-one)propane-1,3-diamine]
E. faecalis; E. faecalis, Van-R(11)
  MIC50: < 0.004 mg/L
  MIC90: 0.015 mg/L
  Mode (MIC): < 0.004 mg/L
  Range (MIC): <0.004-0.015
E. faecalis; E. faecalis, Van-S (16)
  MIC50: ≦0.004
  MIC90: 0.008 mg/L
  Mode (MIC): ≦0.004
  Range (MIC): <0.004-0.015
E. faecalis; [2]
  MIC: 0.015 mg/L
E. faecalis; Table 4, E. faecalis 1
  MIC: 0.004 mg/L
E. faecalis; Table 4, E. faecalis 7
  MIC: 0.015 mg/L
E. faecalis; [3]
  MIC50: < 0.004 mg/L
  MIC90: 0.015 mg/L
  Mode (MIC): < 0.004 mg/L
  Range (MIC): <0.004-0.015
S. pyogenes
  MIC50: 0.06 mg/L
  MIC90: 0.12 mg/L
  Mode (MIC): 0.06 mg/L
  MIC Range: 0.03 to 0.25
S. pyogenes; Streptococcus pyogenes, ATCC19615, Table 4, S. pyogenes ATCC 19615, read-out: MIC
  MIC: 0.12 mg/L
S. pyogenes; Streptococcus pyogenes, Table 4, S. pyogenes MB000143, read-out: MIC
  MIC: 0.12 mg/L
S. epidermidis; Staphylococcus epidermidis, Table 4, S. epidermidis NRS6, read-out: MIC
  MIC: 0.25 mg/L
S. epidermidis; Staphylococcus epidermidis, Table 4, S. epidermidis NRS7, read-out: MIC
  MIC: 0.06 mg/L
S. epidermidis; Staphylococcus epidermidis, Table 4, S. epidermidis NRS8, read-out: MIC
  MIC: 0.12 mg/L
E. faecium; E. faecium, Van-R(12)
  MIC50: < 0.004 mg/L
  MIC90: < 0.004 mg/L
  Mode (MIC): < 0.004 mg/L
E. faecium; E. faecium, Van-R(12), in µg/mL
  Range (MIC): <0.004-0.03
E. faecium; E. faecium, Van-S (11)
  MIC50: ≦0.004
  MIC90: ≦0.004
  Mode (MIC): ≦0.004
  Range (MIC): ≦0.004
E. faecium; [4]
  MIC50: < 0.004 mg/L
  MIC90: < 0.004 mg/L
  Mode (MIC): < 0.004 mg/L
E. faecium; recent clinical isolates of E. faecium, ALL (23), in µg/mL
  Range (MIC): <0.004-0.03
[1]; [5]
  MIC: 0.06 mg/L
[1]; ATCC43300, S. aureus ATCC 43300, metS wild-type
  MIC: 0.06 mg/L
[1]; S. aureus SP-1A2, metS A247E
  MIC: 4 mg/L
[1]; S. aureus SP-1B5, metS I57N
  MIC: 8 mg/L
[1]; S. aureus SP-2B5, metS I57N, R100S
  MIC: 16 mg/L
[1]; S. aureus SP-2C4, metS L213W
  MIC: 4 mg/L
[1]; S. aureus SP-2D4, metS I57N
  MIC: 16 mg/L
[1]; [6]
  MIC: 4 mg/L
[1]; S. aureus SP-21A, metS A77V
  MIC: 4 mg/L
[1]; S. aureus SR1, metS I57N
  MIC: 4 mg/L
S. hemolyticus; Table 4, S. hemolyticus NRS50, read-out: MIC
  MIC: 0.12 mg/L
S. hemolyticus; Table 4, S. hemolyticus NRS116, read-out: MIC
  MIC: 0.25 mg/L
